The values that follow come from ChEMBL document CHEMBL4043230, “Synthesis and biological evaluation of peptide-derived TSLP inhibitors” (Bioorg Med Chem Lett, 2017).

Where a SMILES comes first, the peptide text is derived from it.

Assay [1] concerns the target Thymic stromal lymphopoietin (Homo sapiens) (UniProt Q969D9). Briefly: Inhibition of human N-terminal flag-tagged TSLP/human C-terminal octa histidine-tagged TSLPR interaction at 0.1 mM after 16 hrs by ELISA based spectrophotometric analysis. In general terms: An ELISA detects its analyte on a solid surface through an enzyme-linked reagent.
For assay [2] the target is unchanged. Briefly: Inhibition of human N-terminal flag-tagged TSLP/human C-terminal octa histidine-tagged TSLPR interaction at 1 mM after 16 hrs by ELISA based spectrophotometric analysis relative to control.
Assay [3] has the same target. Kind of assay: Inhibition of human N-terminal flag-tagged TSLP/human C-terminal octa histidine-tagged TSLPR interaction at 0.3 mM after 16 hrs by ELISA based spectrophotometric analysis.

Chain of Thymic stromal lymphopoietin (Homo sapiens) (Q969D9 whole entry): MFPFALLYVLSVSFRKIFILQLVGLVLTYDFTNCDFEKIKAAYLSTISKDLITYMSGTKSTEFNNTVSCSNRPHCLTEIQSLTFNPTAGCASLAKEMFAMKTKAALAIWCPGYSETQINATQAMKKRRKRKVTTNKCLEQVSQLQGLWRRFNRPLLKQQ

Broadly, the inhibition is the share of the control response that was lost under treatment. A high value points to a strong effect. Take `CC(=O)N[C@@H](C)C(=O)N[C@@H](C)C(=O)N[C@@H](Cc1cnc[nH]1)C(=O)N[C@@H](Cc1ccc(O)cc1)C(=O)NCC(=O)N[C@@H](CC(C)C)C(=O)N[C@@H](CCC(=O)O)C(=O)O` (Ac-AAHYGLE-OH): the inhibition in assay [1] was determined as 4%; in assay [2] it was 37%; in assay [3], 11%.

In the case of `CC(=O)N[C@@H](CCCNC(=N)N)C(=O)N[C@@H](CCC(N)=O)C(=O)N[C@@H](CCCNC(=N)N)C(=O)N[C@@H](C)C(=O)N[C@@H](CO)C(=O)N[C@@H](C)C(=O)O` (Ac-RQRASA-OH), the inhibition in assay [1] turned out to be 22%; in assay [2], 18%; in assay [3], 22%.

Take `CC(=O)N[C@@H](CCCNC(=N)N)C(=O)N[C@@H](C)C(=O)N[C@@H](C)C(=O)N[C@@H](Cc1cnc[nH]1)C(=O)N[C@@H](Cc1ccc(O)cc1)C(=O)NCC(=O)N[C@@H](CC(C)C)C(=O)N[C@@H](CCC(=O)O)C(=O)O` (Ac-RAAHYGLE-OH): the inhibition in assay [1] was 5%; in assay [2] it was 52%; in assay [3], 15%.

For the molecule `CC(=O)N[C@@H](C)C(=O)N[C@@H](CCCNC(=N)N)C(=O)N[C@@H](CCC(N)=O)C(=O)N[C@@H](CCCNC(=N)N)C(=O)N[C@@H](C)C(=O)N[C@@H](CO)C(=O)N[C@@H](C)C(=O)N[C@@H](Cc1c[nH]c2ccccc12)C(=O)O` (Ac-ARQRASAW-OH), the inhibition in assay [1] turned out to be 50%; in assay [2], 65%; in assay [3], 56%.

Consider `CC(C)C[C@H](NC(=O)CNC(=O)[C@H](Cc1ccc(O)cc1)NC(=O)[C@H](Cc1cnc[nH]1)NC(=O)[C@H](C)NC(=O)[C@H](C)N)C(=O)N[C@@H](CCC(=O)O)C(=O)N[C@@H](C)C(=O)O` (H-AAHYGLEA-OH), for which the inhibition in assay [1] was found to be 5%; in assay [2], 59%; in assay [3] it was 23%.

Turning to `CC(=O)N[C@@H](C)C(=O)N[C@@H](CCCNC(=N)N)C(=O)N[C@@H](CCC(N)=O)C(=O)N[C@@H](CCCNC(=N)N)C(=O)N[C@@H](C)C(=O)N[C@@H](CO)C(=O)N[C@@H](C)C(=O)O` (Ac-ARQRASA-OH), the inhibition was determined as 30% in assay [1], 26% in assay [2] and 30% in assay [3].

`C[C@H](NC(=O)[C@H](CO)NC(=O)[C@H](C)NC(=O)[C@H](CCCNC(=N)N)NC(=O)[C@H](CCC(N)=O)NC(=O)[C@@H](N)CCCNC(=N)N)C(=O)N[C@@H](Cc1c[nH]c2ccccc12)C(=O)O` (H-RQRASAW-OH): the inhibition is 38% in assay [1], 46% in assay [2] and 47% in assay [3].

Turning to `CC(=O)N[C@@H](C)C(=O)N[C@@H](C)C(=O)N[C@@H](Cc1cnc[nH]1)C(=O)N[C@@H](Cc1ccc(O)cc1)C(=O)NCC(=O)N[C@@H](CC(C)C)C(=O)N[C@@H](CCC(=O)O)C(=O)N[C@@H](C)C(=O)O` (Ac-AAHYGLEA-OH), the inhibition in assay [1] amounted to 2%; in assay [2], 26%; in assay [3], 4%.

Turning to `CC(C)C[C@H](NC(=O)CNC(=O)[C@H](Cc1ccc(O)cc1)NC(=O)[C@H](Cc1cnc[nH]1)NC(=O)[C@H](C)NC(=O)[C@H](C)NC(=O)[C@@H](N)CCCNC(=N)N)C(=O)N[C@@H](CCC(=O)O)C(=O)N[C@@H](C)C(=O)O` (H-RAAHYGLEA-OH), the inhibition in assay [1] was determined as 7%; in assay [2] it was 35%; in assay [3], 17%.

As to `CC(=O)N[C@@H](CCCNC(=N)N)C(=O)N[C@@H](CCC(N)=O)C(=O)N[C@@H](CCCNC(=N)N)C(=O)N[C@@H](C)C(=O)N[C@@H](CO)C(=O)N[C@@H](C)C(=O)N[C@@H](Cc1c[nH]c2ccccc12)C(=O)O` (Ac-RQRASAW-OH), the inhibition was found to be 38% in assay [1], 56% in assay [2] and 44% in assay [3].

On to `C[C@H](N)C(=O)N[C@@H](CCCNC(=N)N)C(=O)N[C@@H](CCC(N)=O)C(=O)N[C@@H](CCCNC(=N)N)C(=O)N[C@@H](C)C(=O)N[C@@H](CO)C(=O)N[C@@H](C)C(=O)O` (H-ARQRASA-OH), for which the inhibition amounted to 30% in assay [1], 30% in assay [2] and 32% in assay [3].

Consider `CC(C)C[C@H](NC(=O)CNC(=O)[C@H](Cc1ccc(O)cc1)NC(=O)[C@H](Cc1cnc[nH]1)NC(=O)[C@H](C)NC(=O)[C@H](C)NC(=O)[C@@H](N)CCCNC(=N)N)C(=O)N[C@@H](CCC(=O)O)C(=O)O` (H-RAAHYGLE-OH), for which the values for the inhibition in assay [1], in assay [2] and in assay [3] were 4%, 45% and 10%, respectively.

Turning to `CC(=O)N[C@@H](CCCNC(=N)N)C(=O)N[C@@H](C)C(=O)N[C@@H](C)C(=O)N[C@@H](Cc1cnc[nH]1)C(=O)N[C@@H](Cc1ccc(O)cc1)C(=O)NCC(=O)N[C@@H](CC(C)C)C(=O)N[C@@H](CCC(=O)O)C(=O)N[C@@H](C)C(=O)O` (Ac-RAAHYGLEA-OH), the inhibition in assay [1] turned out to be 12%; in assay [2] it was 34%; in assay [3], 11%.

On to `C[C@H](NC(=O)[C@H](CO)NC(=O)[C@H](C)NC(=O)[C@H](CCCNC(=N)N)NC(=O)[C@H](CCC(N)=O)NC(=O)[C@@H](N)CCCNC(=N)N)C(=O)O` (H-RQRASA-OH), for which the inhibition in assay [1] was 19%; in assay [2], 18%; in assay [3], 15%.

Consider `C[C@H](N)C(=O)N[C@@H](CCCNC(=N)N)C(=O)N[C@@H](CCC(N)=O)C(=O)N[C@@H](CCCNC(=N)N)C(=O)N[C@@H](C)C(=O)N[C@@H](CO)C(=O)N[C@@H](C)C(=O)N[C@@H](Cc1c[nH]c2ccccc12)C(=O)O` (H-ARQRASAW-OH), for which the inhibition was 42% in assay [1], 60% in assay [2] and 49% in assay [3].

Take `CC(C)C[C@H](NC(=O)CNC(=O)[C@H](Cc1ccc(O)cc1)NC(=O)[C@H](Cc1cnc[nH]1)NC(=O)[C@H](C)NC(=O)[C@H](C)N)C(=O)N[C@@H](CCC(=O)O)C(=O)O` (H-AAHYGLE-OH): the figures for the inhibition in assay [1], in assay [2] and in assay [3] were 2%, 16% and 3%, respectively.
